Test results published in BindingDB's records for doi:10.1016/j.bmc.2012.11.021 (University of Bonn, 2012).

Experiments:
Adenosine receptor A2b = target: T1, Adenosine receptor A2b (Homo sapiens, UniProt P29275); assay: Displacement of [3H]PSB-603 from human recombinant adenosine A2B receptor expressed in CHO cells after 75 mins by liquid scintillation counting analysis
T1 sequence (P29275 whole entry): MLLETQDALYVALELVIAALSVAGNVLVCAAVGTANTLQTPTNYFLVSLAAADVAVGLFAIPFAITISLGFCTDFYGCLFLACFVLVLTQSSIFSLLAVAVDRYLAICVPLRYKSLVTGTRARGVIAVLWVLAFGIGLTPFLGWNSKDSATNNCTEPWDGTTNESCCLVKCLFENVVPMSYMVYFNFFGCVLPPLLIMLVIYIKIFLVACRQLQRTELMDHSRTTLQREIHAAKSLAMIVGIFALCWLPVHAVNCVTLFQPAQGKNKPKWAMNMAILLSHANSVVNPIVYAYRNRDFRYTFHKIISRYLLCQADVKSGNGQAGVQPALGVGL

Adenosine receptor A2a = Adenosine receptor A2a (Rattus norvegicus, UniProt P30543); assay: Displacement of [3H]CGS21680 from adenosine A2A receptor in rat brain striatal membrane after 60 mins by liquid scintillation counting analysis
Chain of Adenosine receptor A2a (P30543 whole entry): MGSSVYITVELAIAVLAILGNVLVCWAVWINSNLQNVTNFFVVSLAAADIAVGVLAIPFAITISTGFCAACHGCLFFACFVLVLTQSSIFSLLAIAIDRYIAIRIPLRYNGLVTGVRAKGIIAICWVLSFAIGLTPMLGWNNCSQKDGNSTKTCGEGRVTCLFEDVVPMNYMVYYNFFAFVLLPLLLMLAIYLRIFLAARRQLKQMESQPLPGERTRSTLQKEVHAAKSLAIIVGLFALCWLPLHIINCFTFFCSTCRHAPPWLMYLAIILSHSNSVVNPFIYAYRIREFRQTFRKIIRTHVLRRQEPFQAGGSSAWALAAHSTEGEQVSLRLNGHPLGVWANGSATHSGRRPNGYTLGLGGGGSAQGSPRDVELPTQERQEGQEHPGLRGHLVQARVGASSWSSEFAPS

SMILES	Ki (Adenosine receptor A2b)	Ki (Adenosine receptor A2a)
CN(NC(CO)C(=O)[C@@H](O)[C@@H](O)CO)c1nc(N)c2ncn([C@@H]3O[C@H](CO)[C@@H](O)[C@H]3O)c2n1 (some centres not stated)	> 10 µM	> 1 µM
Nc1nc(NNC(CO)C(=O)[C@@H](O)[C@@H](O)CO)nc2c1ncn2[C@@H]1O[C@H](CO)[C@@H](O)[C@H]1O (some centres not stated)	> 10 µM	> 1 µM
Nc1nc(NNCC(=O)[C@@H](O)[C@@H](O)CO)nc2c1ncn2[C@@H]1O[C@H](CO)[C@@H](O)[C@H]1O	> 10 µM	> 1 µM

Now from value to compound:

Ki (Adenosine receptor A2b)	Ki (Adenosine receptor A2a)	SMILES
> 10 µM	> 1 µM	CN(NCC(=O)[C@@H](O)[C@@H](O)CO)c1nc(N)c2ncn([C@@H]3O[C@H](CO)[C@@H](O)[C@H]3O)c2n1
> 10 µM	> 1 µM	CN(NCC(=O)[C@H](O)[C@@H](O)[C@@H](O)CO)c1nc(N)c2ncn([C@@H]3O[C@H](CO)[C@@H](O)[C@H]3O)c2n1
> 10 µM	> 1 µM	CN(NCC(=O)[C@@H](O)[C@@H](O)[C@H](O)CO)c1nc(N)c2ncn([C@@H]3O[C@H](CO)[C@@H](O)[C@H]3O)c2n1
